Counter-ions that a name gives are not always drawn.

For assay [1], the target named is T1, PDGFR beta (Homo sapiens, UniProt P09619).
T1 construct: endogenous in cells; host or cells: HS27 human fibroblast cell line
Put plainly: Phospho PDGFR Cell Assay, sandwich ELISA (Example A). The note with it: averaged IC50, PDGFR beta phosphorylation in HS27 human fibroblast cell line, PDGF-BB stimulation 5 minutes. It is filed as cell-based. As for the experimental part: Compounds were screened for inhibition of PDGFR beta phosphorylation in the HS27 human fibroblast cell line. Cells were seeded into a 96 well tissue culture plate, then incubated overnight in a 37° C., 5% CO2 incubator. The following day, cells were treated for one hour with test compound dilutions. After stimulation with PDGF-BB ligand for 5 minutes, cells were lysed and added to a sandwich ELISA plate from R&D Systems to detect levels of phospho PDGFR beta. A standard 4-parameter logistic model was fit to the inhibitor dose response curves, with the IC50 being defined as the concentration of inhibitor giving 50 percent of control (POC).

A further assay deals with T2, cFMS (Homo sapiens, UniProt P07333).
T2 construct: THP-1 cells (human acute monocytic leukemia cell line) were serum-starved for 4 hours; endogenous in cells; host or cells: THP-1 cells (human acute monocytic leukemia cell line)
The assay is described as follows: cFMS Cell-Based Assay (Example C). The note with it: averaged IC50; phospho-cFMS in THP-1 cells stimulated with 250 ng/mL recombinant human MCSF; read-out: cFMS Cell ELISA IC50. An outline of the steps:
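Phosphotyrosine on cFMS, captured from lysates and quantified by ELISA, reads receptor activation after 1 min of 250 ng/mL human MCSF. Beforehand, THP-1 cells were serum-starved for 4 h and exposed to compound for 1 h (9 points, 3-fold, typically up to 5,000 nM). IC50 from a 4-parameter logistic fit as 50 percent of control.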

The next assay addresses T3, c-KIT (Homo sapiens, UniProt P10721).
T3 construct: M-07e cells (human acute megakaryoblastic leukemia cell line) were serum-starved for 4 hours; endogenous in cells; host or cells: M-07e cells (human acute megakaryoblastic leukemia cell line)
The assay is described as follows: c-KIT Cell-Based Assay (Example D). The note with it: averaged IC50; phospho-c-KIT in M-07e cells stimulated with 150 ng/ml recombinant human SCF; read-out: cKIT Cell ELISA IC50. An outline of the steps:
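Phospho-c-KIT ELISA readout, calibrated with purified phospho-SCF R, gave IC50 (4-parameter fit, 50% of control). Before lysis, M-07e cells were starved 4 h, exposed 1 h to a 9-point 3-fold series (highest usually 5,000 nM), and stimulated with 150 ng/ml SCF for 4 min.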

Assay [2] deals with T1, PDGFR beta. The assay is described as follows: Phospho PDGFR LICOR Cell Assay (Example B). The note with it: averaged IC50; PDGFR beta phosphorylation in HS27 human fibroblast cell line, PDGF-BB stimulation 10 minutes, normalized to total ERK. It is filed as cell-based. An outline of the steps:
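Read-out is in-cell phospho-PDGFRβ/total-ERK infrared immunofluorescence in HS27 fibroblasts. Cells got 1 h compound exposure before a 10 min PDGF-BB challenge. A 4-parameter logistic fit gave IC50 as the concentration yielding 50 percent of control.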

T2 sequence (P07333 20-972): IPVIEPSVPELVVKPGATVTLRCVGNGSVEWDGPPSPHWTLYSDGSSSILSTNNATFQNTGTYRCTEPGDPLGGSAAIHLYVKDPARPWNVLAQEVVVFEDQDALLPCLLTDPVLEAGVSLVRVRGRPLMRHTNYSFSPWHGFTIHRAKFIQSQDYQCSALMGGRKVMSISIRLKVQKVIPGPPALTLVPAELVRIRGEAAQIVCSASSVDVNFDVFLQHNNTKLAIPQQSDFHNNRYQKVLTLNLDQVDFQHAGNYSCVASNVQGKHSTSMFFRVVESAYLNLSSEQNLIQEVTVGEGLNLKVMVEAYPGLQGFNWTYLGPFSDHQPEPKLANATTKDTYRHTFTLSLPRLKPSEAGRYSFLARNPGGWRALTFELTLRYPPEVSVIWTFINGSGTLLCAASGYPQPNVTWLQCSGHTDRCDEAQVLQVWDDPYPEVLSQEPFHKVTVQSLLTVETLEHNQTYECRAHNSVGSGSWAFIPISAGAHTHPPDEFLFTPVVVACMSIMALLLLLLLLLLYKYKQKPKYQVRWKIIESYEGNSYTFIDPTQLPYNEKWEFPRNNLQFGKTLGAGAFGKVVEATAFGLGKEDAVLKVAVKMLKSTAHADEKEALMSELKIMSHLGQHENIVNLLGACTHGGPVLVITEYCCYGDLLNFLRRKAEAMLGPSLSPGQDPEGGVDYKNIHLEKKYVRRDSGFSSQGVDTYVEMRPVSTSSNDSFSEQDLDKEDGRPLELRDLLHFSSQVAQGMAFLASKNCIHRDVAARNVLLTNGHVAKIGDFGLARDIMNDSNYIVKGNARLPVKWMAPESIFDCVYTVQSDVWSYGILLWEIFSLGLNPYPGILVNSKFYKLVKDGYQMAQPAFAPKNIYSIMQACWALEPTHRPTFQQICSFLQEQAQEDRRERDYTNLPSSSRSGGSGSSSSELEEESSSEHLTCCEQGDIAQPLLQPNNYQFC
T1 sequence (P09619 33-1106): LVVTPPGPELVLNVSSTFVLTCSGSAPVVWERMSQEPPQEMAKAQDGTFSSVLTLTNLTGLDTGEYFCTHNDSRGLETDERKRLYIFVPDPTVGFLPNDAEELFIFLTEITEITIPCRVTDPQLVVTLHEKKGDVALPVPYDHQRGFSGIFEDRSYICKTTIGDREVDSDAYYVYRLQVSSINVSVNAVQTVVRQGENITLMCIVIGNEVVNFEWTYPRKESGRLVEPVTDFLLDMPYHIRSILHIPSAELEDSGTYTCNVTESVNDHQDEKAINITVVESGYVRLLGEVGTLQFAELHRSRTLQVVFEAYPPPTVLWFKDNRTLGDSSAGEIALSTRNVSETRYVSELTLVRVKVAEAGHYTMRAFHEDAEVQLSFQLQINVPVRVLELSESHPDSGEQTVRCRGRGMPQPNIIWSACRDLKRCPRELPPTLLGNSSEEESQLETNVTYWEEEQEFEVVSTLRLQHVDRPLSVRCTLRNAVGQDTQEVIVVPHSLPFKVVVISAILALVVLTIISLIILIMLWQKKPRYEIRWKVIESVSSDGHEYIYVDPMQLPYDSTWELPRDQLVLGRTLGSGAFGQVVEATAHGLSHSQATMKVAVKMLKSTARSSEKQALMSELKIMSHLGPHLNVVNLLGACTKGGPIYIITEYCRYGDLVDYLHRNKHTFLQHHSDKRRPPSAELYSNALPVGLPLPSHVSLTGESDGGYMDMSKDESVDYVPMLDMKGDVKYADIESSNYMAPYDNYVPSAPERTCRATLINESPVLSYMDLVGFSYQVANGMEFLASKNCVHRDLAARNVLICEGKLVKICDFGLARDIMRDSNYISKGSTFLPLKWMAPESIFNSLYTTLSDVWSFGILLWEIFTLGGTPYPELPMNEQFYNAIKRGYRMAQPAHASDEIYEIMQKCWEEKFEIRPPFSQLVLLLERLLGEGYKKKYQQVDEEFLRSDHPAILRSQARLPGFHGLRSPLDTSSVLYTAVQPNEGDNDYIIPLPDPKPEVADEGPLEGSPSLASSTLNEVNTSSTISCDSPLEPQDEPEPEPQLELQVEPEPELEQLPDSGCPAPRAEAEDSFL
T3 sequence (P10721 26-976): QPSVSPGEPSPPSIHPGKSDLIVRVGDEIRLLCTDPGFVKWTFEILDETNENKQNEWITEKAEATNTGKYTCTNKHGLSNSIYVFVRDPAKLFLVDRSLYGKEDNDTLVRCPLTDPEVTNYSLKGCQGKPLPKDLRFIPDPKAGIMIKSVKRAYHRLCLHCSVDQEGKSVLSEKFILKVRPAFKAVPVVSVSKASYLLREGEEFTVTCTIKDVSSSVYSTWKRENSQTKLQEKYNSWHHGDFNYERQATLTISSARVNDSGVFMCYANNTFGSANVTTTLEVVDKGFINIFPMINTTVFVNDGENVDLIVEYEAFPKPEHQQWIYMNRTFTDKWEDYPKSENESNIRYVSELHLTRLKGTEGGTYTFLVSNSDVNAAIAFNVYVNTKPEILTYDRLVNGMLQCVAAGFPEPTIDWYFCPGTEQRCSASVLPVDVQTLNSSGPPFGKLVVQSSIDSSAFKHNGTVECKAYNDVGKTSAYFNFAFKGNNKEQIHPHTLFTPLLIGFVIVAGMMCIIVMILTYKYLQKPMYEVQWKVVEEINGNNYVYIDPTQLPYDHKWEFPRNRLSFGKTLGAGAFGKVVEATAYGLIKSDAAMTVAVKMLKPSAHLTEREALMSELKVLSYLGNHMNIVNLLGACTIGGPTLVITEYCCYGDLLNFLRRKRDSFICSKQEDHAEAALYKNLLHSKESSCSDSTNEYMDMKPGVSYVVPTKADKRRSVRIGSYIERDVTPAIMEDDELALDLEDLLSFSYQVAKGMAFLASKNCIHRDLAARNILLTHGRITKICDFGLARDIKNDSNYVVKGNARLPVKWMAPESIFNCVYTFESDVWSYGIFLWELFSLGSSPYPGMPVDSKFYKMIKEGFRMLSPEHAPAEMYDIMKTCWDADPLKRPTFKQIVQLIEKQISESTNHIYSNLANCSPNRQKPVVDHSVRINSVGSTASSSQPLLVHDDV

As for `Cc1nn(Cc2cccc(C3CC3)n2)c2ccc(F)c(NC(=O)c3cnc4cc(OCCN5CCN(C)[C@@H](C)C5)ccn34)c12` [Example 43, (S)—N-(1-((6-cyclopropylpyridin-2-yl)methyl)-5-fluoro-3-methyl-1H-indazol-4-yl)-7-(2-(3,4-dimethylpiperazin-1-yl)ethoxy)imidazo[1,2-a]pyridine-3-carboxamide], the IC50 against PDGFR beta [1] worked out at 84.5 nM; on cFMS it was 23.4 nM; at c-KIT, 58.9 nM.

Turning to `O=C(Nc1cccc2c1cnn2Cc1ccccc1)c1cnc2cc(C(O)CO)ccn12` (stereo not drawn) [Example 157, N-(1-benzyl-1H-indazol-4-yl)-7-(1,2-dihydroxyethyl)imidazo[1,2-a]pyridine-3-carboxamide], the concentration for half-maximal inhibition (IC50) against PDGFR beta [1] was 275 nM; on cFMS it was 105 nM; on c-KIT, 232 nM.

With `Cc1nc(Cn2nc(C)c3c(NC(=O)c4cnc5cc(OCCN6CCN(C)CC6)ccn45)cccc32)cs1` [Example 88, N-(3-methyl-1-((2-methylthiazol-4-yl)methyl)-1H-indazol-4-yl)-7-(2-(4-methylpiperazin-1-yl)ethoxy)imidazo[1,2-a]pyridine-3-carboxamide], the IC50 on PDGFR beta [2] is 180 nM; on cFMS, 15.6 nM; on c-KIT, 510 nM.

For `COCCOc1ccn2c(C(=O)Nc3ccc(Cl)c4c3cnn4Cc3ccccc3)cnc2c1` [Example 135, N-(1-benzyl-7-chloro-1H-indazol-4-yl)-7-(2-methoxyethoxy)imidazo[1,2-a]pyridine-3-carboxamide], the half-maximal inhibitory concentration (IC50) at PDGFR beta [2] turned out to be 362 nM; at cFMS, 228 nM; on c-KIT, 396 nM.

Regarding `CC(=O)c1ccn2c(C(=O)Nc3cccc4c3cnn4Cc3ccccc3)cnc2c1` [Example 146, 7-acetyl-N-(1-benzyl-1H-indazol-4-yl)imidazo[1,2-a]pyridine-3-carboxamide], the concentration for half-maximal inhibition (IC50) against PDGFR beta [2] was 109 nM; on cFMS, 58.2 nM; at c-KIT, 36.9 nM.

For `Cc1nn(Cc2cc(C)n(C(C)C)n2)c2cccc(NC(=O)c3cnc4cc(OCCN5CCN(C)CC5)ccn34)c12` [Example 67, N-(1-((1-isopropyl-5-methyl-1H-pyrazol-3-yl)methyl)-3-methyl-1H-indazol-4-yl)-7-(2-(4-methylpiperazin-1-yl)ethoxy)imidazo[1,2-a]pyridine-3-carboxamide], the 50% inhibitory concentration (IC50) against PDGFR beta [2] is 10.3 nM; on cFMS it was 10 nM; at c-KIT it was 60.6 nM.

As for `Cc1cccc(Cn2nc(C)c3c(NC(=O)c4cnc5cc(CCN(C)C)ccn45)cccc32)n1` [Example 72, 7-(2-(dimethylamino)ethyl)-N-(3-methyl-1-((6-methylpyridin-2-yl)methyl)-1H-indazol-4-yl)imidazo[1,2-a]pyridine-3-carboxamide], the 50% inhibitory concentration (IC50) at PDGFR beta [2] stood at 3160 nM; at cFMS, 24.2 nM; at c-KIT, 7010 nM.

As to `CN1CCN(CCOc2ccn3c(C(=O)Nc4cccc5c4cnn5CCc4ccccn4)cnc3c2)CC1` [Example 107, 7-(2-(4-methylpiperazin-1-yl)ethoxy)-N-(1-(2-(pyridin-2-yl)ethyl)-1H-indazol-4-yl)imidazo[1,2-a]pyridine-3-carboxamide], the IC50 on PDGFR beta [2] was determined as 158 nM; at cFMS, 44.8 nM; at c-KIT it was 123 nM.

With `COCCOc1ccn2c(C(=O)Nc3cccc4c3cnn4Cc3cccnc3C)cnc2c1` [Example 118, 7-(2-methoxyethoxy)-N-(1-((2-methylpyridin-3-yl)methyl)-1H-indazol-4-yl)imidazo[1,2-a]pyridine-3-carboxamide], the half-maximal inhibitory concentration (IC50) on PDGFR beta [2] was 178 nM; on cFMS, 310 nM; on c-KIT, 581 nM.

For the compound `Cc1nn(Cc2cc(C)n(C(C)C)n2)c2cccc(NC(=O)c3cnc4cc(OCCN5CC6(CN(C)C6)C5)ccn34)c12` [Example 8, N-(1-((1-Isopropyl-5-methyl-1H-pyrazol-3-yl)methyl)-3-methyl-1H-indazol-4-yl)-7-(2-(6-methyl-2,6-diazaspiro[3.3]heptan-2-yl)ethoxy)imidazo[1,2-a]pyridine-3-carboxamide], the IC50 against PDGFR beta [2] came to 32.6 nM; on cFMS it was 33.6 nM; at c-KIT, 122 nM.

In the case of `CNC(=O)c1cccc(Cn2ncc3c(NC(=O)c4cnc5cc(OCCOC)ccn45)cccc32)c1` [Example 95, 7-(2-Methoxyethoxy)-N-(1-(3-(methylcarbamoyl)benzyl)-1H-indazol-4-yl)imidazo[1,2-a]pyridine-3-carboxamide], the IC50 is 74.3 nM against PDGFR beta [2], 31.4 nM at cFMS and 78.2 nM on c-KIT.

Consider `COCCOc1ccn2c(C(=O)Nc3c(Cl)cc(Cl)c4c3cnn4Cc3ccccc3)cnc2c1` [Example 136, N-(1-benzyl-5,7-dichloro-1H-indazol-4-yl)-7-(2-methoxyethoxy)imidazo[1,2-a]pyridine-3-carboxamide], for which the results for the IC50 at PDGFR beta [2], at cFMS and on c-KIT were 1000 nM, 20.7 nM and 54.1 nM, respectively.

For the compound `Cc1nn(Cc2cc(C)n(C(C)C)n2)c2cccc(NC(=O)c3cnc4cc(OCCN5CCN(C(C)C)CC5)ccn34)c12` [Example 10, N-(1-((1-Isopropyl-5-methyl-1H-pyrazol-3-yl)methyl)-3-methyl-1H-indazol-4-yl)-7-(2-(4-isopropylpiperazin-1-yl)ethoxy)imidazo[1,2-a]pyridine-3-carboxamide], the IC50 on PDGFR beta [2] was 40.8 nM; at cFMS, 25.3 nM; on c-KIT, 141 nM.

Consider `Cc1cccc(Cn2nc(C)c3c(NC(=O)c4cnc5cc(-c6cnn(C)c6)ccn45)cccc32)n1` [Example 68, N-(3-methyl-1-((6-methylpyridin-2-yl)methyl)-1H-indazol-4-yl)-7-(1-methyl-1H-pyrazol-4-yl)imidazo[1,2-a]pyridine-3-carboxamide], for which the IC50 on PDGFR beta [2] is 23.2 nM; at cFMS it was 5 nM; on c-KIT, 76.9 nM.

In the case of `Cc1nn(Cc2csc(C(C)C)n2)c2cccc(NC(=O)c3cnc4cc(OCCN5CCN(C(C)C)CC5)ccn34)c12` [Example 15, 7-(2-(4-isopropylpiperazin-1-yl)ethoxy)-N-(1-((2-isopropylthiazol-4-yl)methyl)-3-methyl-1H-indazol-4-yl)imidazo[1,2-a]pyridine-3-carboxamide], the IC50 came out at 46.2 nM at PDGFR beta [2], 12 nM at cFMS and 60.6 nM at c-KIT.

Take `COCCOc1ccn2c(C(=O)Nc3cccc4c3cnn4CC3CCN(C(=O)OC(C)(C)C)CC3)cnc2c1` [Example 122, tert-butyl 4-((4-(7-(2-methoxyethoxy)imidazo[1,2-a]pyridine-3-carboxamido)-1H-indazol-1-yl)methyl)piperidine-1-carboxylate]: the IC50 on PDGFR beta [2] turned out to be 49.5 nM; at cFMS, 131 nM; at c-KIT, 60.9 nM.

As for `CN1CCN(CCOc2ccn3c(C(=O)Nc4cccc5c4cnn5Cc4cccc(C(F)(F)F)c4)cnc3c2)CC1` [Example 98, 7-(2-(4-methylpiperazin-1-yl)ethoxy)-N-(1-(3-(trifluoromethyl)benzyl)-1H-indazol-4-yl)imidazo[1,2-a]pyridine-3-carboxamide dihydrochloride], the IC50 against PDGFR beta [2] was 5.7 nM; on cFMS, 26.3 nM; at c-KIT, 4.9 nM.

Regarding `CN1CCN(CCOc2ccn3c(C(=O)Nc4cccc5c4cnn5Cc4cccnc4)cnc3c2)CC1` [Example 102, 7-(2-(4-methylpiperazin-1-yl)ethoxy)-N-(1-(pyridin-3-ylmethyl)-1H-indazol-4-yl)imidazo[1,2-a]pyridine-3-carboxamide trihydrochloride], the IC50 was 17.6 nM on PDGFR beta [2], 26 nM on cFMS and 94.9 nM at c-KIT.

On to `COc1ccn2c(C(=O)Nc3cccc4c3cnn4Cc3ccccc3)cnc2c1` [Example 125, N-(1-benzyl-1H-indazol-4-yl)-7-methoxyimidazo[1,2-a]pyridine-3-carboxamide], for which the values for the IC50 against PDGFR beta [2], on cFMS and on c-KIT were 2.1 nM, 12.5 nM and 19.8 nM, respectively.

On to `Cc1cccc(Cn2nc(C)c3c(NC(=O)c4cnc5cc(OCCN6CCN(C)CC6)ccn45)cccc32)n1` [Example 89, N-(3-methyl-1-((6-methylpyridin-2-yl)methyl)-1H-indazol-4-yl)-7-(2-(4-methylpiperazin-1-yl)ethoxy)imidazo[1,2-a]pyridine-3-carboxamide tetrahydrochloride], for which the values for the IC50 on PDGFR beta [2], at cFMS and on c-KIT were 845 nM, 7.3 nM and 1050 nM, respectively.

These data come from patent publication US10669269B2, “Substituted N-(1H-indazol-4-yl)imidazo[1,2-a]pyridine-3-carboxamide compounds as type III receptor tyrosine kinase inhibitors” (ARRAY BIOPHARMA INC., priority 2010, dated 2020).
